From US20080207738A1, “DRUG COMBINATIONS TO TREAT DRUG RESISTANT TUMORS” (priority 2007, published 2008)

Tests used:
[1] = tested on: L5178/MDR1 mouse T-cell lymphoma cells; assay: cells; details: mouse, 72 h
Source text: (§1) For the determination of relative number of viable cells before and after treatments, in most cases the MTT assay was used. This calorimetric assay is based on the ability of living cells, but not dead cells, to reduce 3-(4, 5-dimethyl thiazol-2-yl)-2, 5-diphenyltetrazolium bromide [Carmichael, J, De Graff, W. G., Gazdar, A. F., Minna, J. D. and Mitchell, J. B. (1987), “Evaluation oftetrazolium-based semiautomated calorimetric assay: Assessment of chemosensitivity testing,” Cancer Res., 47, 936-942]. For this assay, cells were plated in 96-well plates (10,000-30,000 cells in case of cultured cells, 100,000 cells in case of healthy lymphocytes, and 200,000 cells in case of chronic lymphocytic leukemia or non-Hodgkin lymphocytes) in the respective incubation media. After a 24-h resting period, the cells were treated with the test agents and then incubated (in CO2 incubator under humidified atmosphere) for 72 hours (final incubation volume, 150 μl). The MTT assay was performed both with the untreated and treated cell cultures at the conclusion of the incubation. Often, the MTT assay also was performed at the start of treatments to allow assessment of proliferation rates in the control and treated cell cultures. All data presented are the average of 4 incubations (in 4 separate wells) with the same cell population.
L5178/MDR1 cells were seeded at 10,000 cells per well in 96-well plates and then incubated for 72 hours in the absence or presence of 5 μg/ml of CCcompound104 and various concentrations of CCcompound26 as indicated in Table 6.
(§2) Epirubicin, like doxorubicin and other antracyclins, is an MDR1 substrate. The goal of this experiment was to use epirubicin as a model compound to determine if in L5178/MDR1 cells CCcompound104 also can enhance the effects of MDR1 substrate anti-cancer agents other than CCcompound26 and other thioxanthene or thioxanthone CC compounds. The parent and MDR1 expressing cells were seeded at 30,000 cells per well in 96-well microplates and after a 24-h resting period treated with increasing concentrations of epirubicin n in the absence or presence of 5 μg/ml of CCcompound104 for 72 hours.

[2] = tested on: parent L5178 mouse T-cell lymphoma cells; assay: MTT cell viability, parent L5178 cells; details: L5178Y, 30,000 cells per well, 72 h
Source text: as §1
Parent L5178 cells were seeded at 10,000 cells per well in 96-well plates and then incubated for 72 hours in the absence or presence of CCcompound104 (1 or 5 μg/ml) and various concentrations of CCcompound26 as indicated in Table 5.
as §2

[3] = tested on: MCF-7/ADR cells; assay: MTT cell viability, MCF-7/ADR cells; type: cell-based, human; details: 72 h; CCcompound104 5 μg/ml, EA 60 μM, CCcompound26/CCcompound3/CCcompound19 50 μM, alone or combined
Method: MCF/ADR cells were selected by incubating the parent MCF-7 with toxic concentrations (up to 10 μM) of adriamycin (doxorubicin). The selected drug resistant cells express both MDR1 and MRP1 among other molecular alterations as reviewed earlier [Kiss, Z., Tomono, M. and Anderson, W. B. (1994), “Phorbol ester selectively stimulates the phospholipase D-mediated hydrolysis of phosphatidylethanolamine in multidrug-resistant MCF-7 human breast carcinoma cells,” Biochem. J., 302, 649-654]. […] Ethacrynic acid (EA) alone, used at 60 μM concentration, decreased cell viability by about 24%, while CCcompound104 and EA in combination had 70% inhibitory effects (Table 7). In this cell line CCcompound104 and EA decreased cell viability synergistically.

COc1cccc2c1C(=O)c1c(O)c3c(c(O)c1C2=O)C[C@@](O)(C(=O)CO)C[C@@H]3O[C@H]1C[C@H](N)[C@@H](O)[C@H](C)O1 [Epirubicin, epirubicin, reference compound]
Inhibition (%) of viability ([1]; 0.156 µg/ml): 0%
Inhibition (%) of viability ([1]; 0.312 μg/ml): 0%
Inhibition (%) of viability ([1]; 0.625 μg/ml): 0%
Inhibition (%) of viability ([1]; 1.25 μg/ml): 0%
Inhibition (%) of viability ([1]; 2.5 μg/ml): 12.2%
Inhibition (%) of viability ([1]; 5 μg/ml): 32.4%
Inhibition (%) of viability ([2]; Epirubicin 0.156 μg/ml without or with CC104 5 μg/ml): 6.1%
Inhibition (%) of viability ([2]; Epirubicin 0.312 μg/ml without or with CC104 5 μg/ml): 41.5%
Inhibition (%) of viability ([2]; Epirubicin 0.625 μg/ml without or with CC104 5 μg/ml): 98.6%
Inhibition (%) of viability ([2]; Epirubicin 1.250 μg/ml without or with CC104 5 μg/ml): 100%
Inhibition (%) of viability ([2]; Epirubicin 2.500 μg/ml without or with CC104 5 μg/ml): 100%
Inhibition (%) of viability ([2]; Epirubicin 5.000 μg/ml without or with CC104 5 μg/ml): 100%

C[N+](C)(C)CCC=C1c2ccccc2Sc2ccccc21.[I-] [CCcompound19, N,N,N-trimethyl-3-(9H-thioxanthen-9-ylidene)-propan-1-aminium iodide]
Inhibition (%) of viability [3]: 20.2%
